In PubChem BioAssay (NCI):
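48-hour exposure; five concentrations; linearly interpolated endpoints. Definition used: TGI = concentration required for complete inhibition of growth.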

What was measured:
Test in all cases: inhibition of tumour cell growth, NCI panel, 48 h
RPMI-8226 leukemia = test system: RPMI-8226 leukemia
LXFL 529 NSCLC = test system: LXFL 529 NSCLC
OVCAR-3 ovarian = test system: OVCAR-3 ovarian
TK-10 renal = test system: TK-10 renal
SF-295 CNS = test system: SF-295 CNS
SF-268 CNS = test system: SF-268 CNS
OVCAR-4 ovarian = test system: OVCAR-4 ovarian
RXF 393 renal = test system: RXF 393 renal
SNB-78 CNS = test system: SNB-78 CNS
SK-MEL-5 melanoma = test system: SK-MEL-5 melanoma
SNB-75 CNS = test system: SNB-75 CNS
HCC-2998 colon = test system: HCC-2998 colon
M14 melanoma = test system: M14 melanoma
OVCAR-8 ovarian = test system: OVCAR-8 ovarian
SN12C renal = test system: SN12C renal
CAKI-1 renal = test system: CAKI-1 renal
UACC-257 melanoma = test system: UACC-257 melanoma
KM12 colon = test system: KM12 colon
SK-MEL-2 melanoma = test system: SK-MEL-2 melanoma
NCI-H23 lung = test system: NCI-H23 lung
OVCAR-5 ovarian = test system: OVCAR-5 ovarian
U251 CNS = test system: U251 CNS
EKVX NSCLC = test system: EKVX NSCLC
MALME-3M melanoma = test system: MALME-3M melanoma
NCI-H522 lung = test system: NCI-H522 lung
A498 renal = test system: A498 renal
HCT-15 colon = test system: HCT-15 colon
DMS 114 small cell lung = test system: DMS 114 small cell lung
HOP-18 NSCLC = test system: HOP-18 NSCLC
SF-539 CNS = test system: SF-539 CNS
LOX IMVI melanoma = test system: LOX IMVI melanoma
IGROV1 ovarian = test system: IGROV1 ovarian
MOLT-4 leukemia = test system: MOLT-4 leukemia
HCT-116 colon = test system: HCT-116 colon
K-562 leukemia = test system: K-562 leukemia
A549 NSCLC = test system: A549 NSCLC
UO-31 renal = test system: UO-31 renal
HOP-62 NSCLC = test system: HOP-62 NSCLC
ACHN renal = test system: ACHN renal
DMS 273 small cell lung = test system: DMS 273 small cell lung
SNB-19 CNS = test system: SNB-19 CNS
RXF-631 renal = test system: RXF-631 renal
CCRF-CEM leukemia = test system: CCRF-CEM leukemia
HL-60(TB) leukemia = test system: HL-60(TB) leukemia
COLO 205 colon = test system: COLO 205 colon
KM20L2 colon = test system: KM20L2 colon
SW-620 colon = test system: SW-620 colon
HT29 colon = test system: HT29 colon
NCI-H226 lung = test system: NCI-H226 lung
UACC-62 melanoma = test system: UACC-62 melanoma
SK-OV-3 ovarian = test system: SK-OV-3 ovarian
786-0 renal = test system: 786-0 renal
NCI-H460 lung = test system: NCI-H460 lung
HOP-92 NSCLC = test system: HOP-92 NSCLC
SR leukemia = test system: SR leukemia
DLD-1 colon = test system: DLD-1 colon
SK-MEL-28 melanoma = test system: SK-MEL-28 melanoma
M19-MEL melanoma = test system: M19-MEL melanoma

Q: How did the TGI (RPMI-8226 leukemia) turn out when `CC1(C)C2CCC13C(=O)C1OC3(C2)C2C(=O)N(c3ccccc3)C(=O)C12` (centres undefined) was run?
A: > 100 µM

Q: And the TGI (LXFL 529 NSCLC)?
A: > 100 µM

Q: And the TGI (OVCAR-3 ovarian)?
A: > 100 µM

Q: And the TGI (TK-10 renal)?
A: > 100 µM

Q: And the TGI (SF-295 CNS)?
A: > 100 µM

Q: What about the TGI (SF-268 CNS) of the same compound?
A: > 100 µM

Q: And the TGI (OVCAR-4 ovarian)?
A: > 100 µM

Q: And the TGI (RXF 393 renal)?
A: > 100 µM

Q: And the TGI (SNB-78 CNS)?
A: > 100 µM

Q: And the TGI (SK-MEL-5 melanoma)?
A: > 100 µM

Q: And the TGI (SNB-75 CNS)?
A: > 100 µM

Q: And the TGI (HCC-2998 colon)?
A: > 100 µM

Q: And the TGI (M14 melanoma)?
A: > 100 µM

Q: And the TGI (OVCAR-8 ovarian)?
A: > 100 µM

Q: What about the TGI (SN12C renal) of the same compound?
A: > 100 µM

Q: What about the TGI (CAKI-1 renal) of the same compound?
A: > 100 µM

Q: What about the TGI (UACC-257 melanoma) of the same compound?
A: > 100 µM

Q: And the TGI (KM12 colon)?
A: > 100 µM

Q: And the TGI (SK-MEL-2 melanoma)?
A: > 100 µM

Q: And the TGI (NCI-H23 lung)?
A: > 100 µM

Q: What about the TGI (OVCAR-5 ovarian) of the same compound?
A: > 100 µM

Q: And the TGI (U251 CNS)?
A: > 100 µM

Q: And the TGI (EKVX NSCLC)?
A: > 100 µM

Q: What about the TGI (MALME-3M melanoma) of the same compound?
A: > 100 µM

Q: And the TGI (NCI-H522 lung)?
A: 49.1 µM

Q: What about the TGI (A498 renal) of the same compound?
A: > 100 µM

Q: And the TGI (HCT-15 colon)?
A: > 100 µM

Q: And the TGI (DMS 114 small cell lung)?
A: > 100 µM

Q: And the TGI (HOP-18 NSCLC)?
A: > 100 µM

Q: And the TGI (SF-539 CNS)?
A: > 100 µM

Q: What about the TGI (LOX IMVI melanoma) of the same compound?
A: > 100 µM

Q: What about the TGI (IGROV1 ovarian) of the same compound?
A: > 100 µM

Q: And the TGI (MOLT-4 leukemia)?
A: > 100 µM

Q: What about the TGI (HCT-116 colon) of the same compound?
A: > 100 µM

Q: What about the TGI (K-562 leukemia) of the same compound?
A: > 100 µM

Q: And the TGI (A549 NSCLC)?
A: > 100 µM

Q: What about the TGI (UO-31 renal) of the same compound?
A: > 100 µM

Q: What about the TGI (HOP-62 NSCLC) of the same compound?
A: > 100 µM

Q: What about the TGI (ACHN renal) of the same compound?
A: > 100 µM

Q: What about the TGI (DMS 273 small cell lung) of the same compound?
A: > 100 µM

Q: And the TGI (SNB-19 CNS)?
A: > 100 µM

Q: And the TGI (RXF-631 renal)?
A: > 100 µM

Q: What about the TGI (CCRF-CEM leukemia) of the same compound?
A: > 100 µM

Q: And the TGI (HL-60(TB) leukemia)?
A: > 100 µM

Q: And the TGI (COLO 205 colon)?
A: > 100 µM

Q: What about the TGI (KM20L2 colon) of the same compound?
A: > 100 µM

Q: And the TGI (SW-620 colon)?
A: > 100 µM

Q: And the TGI (HT29 colon)?
A: > 100 µM

Q: What about the TGI (NCI-H226 lung) of the same compound?
A: > 100 µM

Q: And the TGI (UACC-62 melanoma)?
A: > 100 µM

Q: What about the TGI (SK-OV-3 ovarian) of the same compound?
A: > 100 µM

Q: What about the TGI (786-0 renal) of the same compound?
A: > 100 µM

Q: And the TGI (NCI-H460 lung)?
A: > 100 µM

Q: What does the source list for `CC(C)(CN1CCCCC1)C(=O)/C=C/c1ccc(Cl)c(Cl)c1`?
A: TGI (RPMI-8226 leukemia): 5.34 µM; TGI (HOP-92 NSCLC): 2.34 µM; TGI (LXFL 529 NSCLC): 2.78 µM; TGI (OVCAR-3 ovarian): 2.94 µM; TGI (TK-10 renal): 2.8 µM; TGI (SF-295 CNS): 5.86 µM; TGI (SF-268 CNS): 3.74 µM; TGI (OVCAR-4 ovarian): 2.87 µM; TGI (RXF 393 renal): 2.42 µM; TGI (SNB-78 CNS): 4.5 µM; TGI (SK-MEL-5 melanoma): 3.5 µM; TGI (SNB-75 CNS): 3.13 µM; TGI (SR leukemia): 4.69 µM; TGI (HCC-2998 colon): 3.21 µM; TGI (M14 melanoma): 3.07 µM; TGI (OVCAR-8 ovarian): > 100 µM; TGI (SN12C renal): 2.92 µM; TGI (UACC-257 melanoma): 2.41 µM; TGI (DLD-1 colon): 3.5 µM; TGI (KM12 colon): 3.25 µM; TGI (SK-MEL-2 melanoma): 3.18 µM; TGI (NCI-H23 lung): 3.26 µM; TGI (OVCAR-5 ovarian): 3.08 µM; TGI (U251 CNS): 2.7 µM; TGI (EKVX NSCLC): 3.29 µM; TGI (SK-MEL-28 melanoma): 3.37 µM; TGI (MALME-3M melanoma): 3.31 µM; TGI (NCI-H522 lung): 2.67 µM; TGI (A498 renal): 3.09 µM; TGI (HCT-15 colon): 2.73 µM; TGI (DMS 114 small cell lung): 3.05 µM; TGI (HOP-18 NSCLC): 2.85 µM; TGI (SF-539 CNS): 4.6 µM; TGI (LOX IMVI melanoma): 2.76 µM; TGI (IGROV1 ovarian): 4.15 µM; TGI (MOLT-4 leukemia): 4.57 µM; TGI (HCT-116 colon): 3.08 µM; TGI (K-562 leukemia): 4.13 µM; TGI (A549 NSCLC): 4.07 µM; TGI (UO-31 renal): 2.99 µM; TGI (HOP-62 NSCLC): 3.8 µM; TGI (ACHN renal): 2.88 µM; TGI (DMS 273 small cell lung): 3.2 µM; TGI (SNB-19 CNS): 12.2 µM; TGI (RXF-631 renal): 3.72 µM; TGI (CCRF-CEM leukemia): 3.27 µM; TGI (HL-60(TB) leukemia): 3.4 µM; TGI (COLO 205 colon): 2.85 µM; TGI (SW-620 colon): 2.94 µM; TGI (HT29 colon): 3.06 µM; TGI (NCI-H226 lung): 3.15 µM; TGI (UACC-62 melanoma): 4.06 µM; TGI (SK-OV-3 ovarian): 7.51 µM; TGI (M19-MEL melanoma): 3.21 µM; TGI (786-0 renal): 2.69 µM; TGI (NCI-H460 lung): 3.46 µM
